From PubChem BioAssay (NCI)
Values joined by “and” are separate entries in the source; they are usually repeats but may differ in a detail not shown here. Identical values can stand only once.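 Cultured in 96-well plates, cells were exposed to test compound for 48 hours across five concentrations. GI50 is the concentration that inhibits growth by half. At the TGI there is no net growth.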

How the values were obtained:
Assay in all cases: DTP human tumour cell line panel, 48 h
IGROV1 ovarian = tested on: IGROV1 ovarian
OVCAR-4 ovarian = tested on: OVCAR-4 ovarian
NCI-H460 lung = tested on: NCI-H460 lung
SK-OV-3 ovarian = tested on: SK-OV-3 ovarian
SF-268 CNS = tested on: SF-268 CNS
U251 CNS = tested on: U251 CNS
HCT-15 colon = tested on: HCT-15 colon
SF-295 CNS = tested on: SF-295 CNS
HOP-92 NSCLC = tested on: HOP-92 NSCLC
UO-31 renal = tested on: UO-31 renal

Structure (SMILES)	TGI (IGROV1 ovarian)	TGI (OVCAR-4 ovarian)	GI50 (NCI-H460 lung)	TGI (NCI-H460 lung)	TGI (SK-OV-3 ovarian)	TGI (SF-268 CNS)	GI50 (U251 CNS)	TGI (U251 CNS)	TGI (HCT-15 colon)	GI50 (SF-295 CNS)	TGI (SF-295 CNS)	TGI (HOP-92 NSCLC)	TGI (UO-31 renal)	GI50 (IGROV1 ovarian)	GI50 (OVCAR-4 ovarian)	GI50 (SK-OV-3 ovarian)	GI50 (SF-268 CNS)	GI50 (HCT-15 colon)	GI50 (HOP-92 NSCLC)	GI50 (UO-31 renal)
Cc1ccc2c(=O)cc(-c3ccc(F)cc3)[nH]c2n1	> 100 µM	> 100 µM	33.6 µM	> 100 µM	> 100 µM	> 100 µM	37.3 µM	> 100 µM	> 100 µM	36.8 µM	> 100 µM	86.5 µM	> 100 µM	–	–	–	–	–	–	–
CC1=C(C(=O)Nc2ccc(Cl)c(Cl)c2)C(c2cccc(Oc3ccccc3)c2)NC(=S)N1 (stereo not drawn)	19 µM	16.5 µM	7.57 µM	14.4 µM	16.3 µM	12.9 µM	7.84 µM	14.8 µM	17.4 µM	8.15 µM	15.3 µM	31.2 µM	17.6 µM	7.72 µM	7.56 µM	8.1 µM	6.1 µM	8.93 µM	13.3 µM	7.63 µM
O=C(/C=C/c1ccccc1)NC1C=Nc2ccc(Cl)cc2NC1=O (stereo not drawn)	> 100 µM	> 100 µM	–	51 µM	> 100 µM	> 100 µM	–	79.9 µM	61 µM	–	> 100 µM	> 100 µM	87.8 µM	–	–	–	–	–	–	–
O=C1C2C(C(=O)N1OS(=O)(=O)c1ccccc1)N(Cc1ccccc1)C(=O)N2Cc1ccccc1 (stereo not drawn)	> 100 µM	> 100 µM	–	> 100 µM	> 100 µM	> 100 µM	–	> 100 µM	> 100 µM	–	> 100 µM	> 100 µM	> 100 µM	–	–	–	–	–	–	–
O=C(O)CSc1ccc([N+](=O)[O-])cc1[N+](=O)[O-]	> 100 µM	> 100 µM	–	> 100 µM	> 100 µM	> 100 µM	–	> 100 µM	> 100 µM	–	> 100 µM	> 100 µM	> 100 µM	–	–	–	–	–	–	–
O=C(Nc1ccc(Cl)c(Cl)c1)Nc1ccc(Cl)c(Cl)c1	22.2 µM and 10.5 µM	14.6 µM and 47.7 µM	2.85 µM and 2.24 µM	10.6 µM and 8.59 µM	11.6 µM and 15.9 µM	15.1 µM and 14.5 µM	2.67 µM and 1.77 µM	11.2 µM and 5.14 µM	11.9 µM and 11.2 µM	2.3 µM and 1.84 µM	6.93 µM and 5.39 µM	5.81 µM and 4.47 µM	7.78 µM and 8.91 µM	4.2 µM and 3.36 µM	2.98 µM and 3.57 µM	3.39 µM and 3.82 µM	3.92 µM and 3.88 µM	2.9 µM and 3.01 µM	2.19 µM and 1.23 µM	2.25 µM and 2.74 µM
CN1C(=O)C(C)(C)C2(SC(C)(C)C2(C)C)N(C)C1=S (stereo not drawn)	> 100 µM	> 100 µM	–	> 100 µM	> 100 µM	> 100 µM	–	> 100 µM	> 100 µM	–	> 100 µM	> 100 µM	> 100 µM	–	–	–	–	–	–	–
O=C1CC(c2ccc3c(c2)OCO3)Nc2ccccc21 (stereo not drawn)	47.8 µM	56.7 µM	9.02 µM	33.7 µM	> 100 µM	35.6 µM	8.46 µM	24.7 µM	31 µM	10.1 µM	24.1 µM	32.3 µM	19.4 µM	10.9 µM	12.2 µM	16.8 µM	10.4 µM	5.61 µM	4.96 µM	5.9 µM
CC1(C)CCc2c(c3c(c4c(=O)c(O)c(-c5ccc(O)cc5)oc24)OC(C)(C)CC3)O1	> 100 µM	> 100 µM	48.7 µM	> 100 µM	53.4 µM	> 100 µM	24.7 µM	65.5 µM	> 100 µM	34.3 µM	> 100 µM	38.2 µM	> 100 µM	> 100 µM	> 100 µM	23.2 µM	30.5 µM	> 100 µM	14.6 µM	> 100 µM
COc1ccc(C(=O)Cn2c(C(=O)c3ccccc3)nc(-c3ccc(OC)cc3)c2-c2ccc(OC)cc2)cc1	> 100 µM	> 100 µM	> 100 µM	> 100 µM	> 100 µM	> 100 µM	64.9 µM	> 100 µM	> 100 µM	42.5 µM	> 100 µM	60.4 µM	> 100 µM	71.2 µM	> 100 µM	97.8 µM	86.4 µM	> 100 µM	24.5 µM	> 100 µM
Clc1ccc2c(NCCCCNc3nc(N4CCCCC4)nc4ccccc34)ccnc2c1	6.59 µM	5.24 µM	2.56 µM	9.03 µM	14.4 µM	7.56 µM	2.02 µM	4.56 µM	3.13 µM	1.22 µM	2.6 µM	3.39 µM	3.05 µM	1.8 µM	1.59 µM	3.81 µM	1.84 µM	1.15 µM	1.56 µM	1.47 µM
